According to patent US9359322B2, “C-linked glucuronide of N-(4-hydroxybenzyl) retinone, analogs thereof, and methods of using the same to inhibit neoplastic cell growth” (Wisconsin Alumni Research Foundation, priority 2005, dated 2016):
Marks after values point to notes of the source that are not given here. One block for each compound: values may come before it.

Legend:
[1] = system: nuclear retinoic acid receptors (RAR); conditions: cited from earlier work
[2] = molecular target: T1, RXRγ (Homo sapiens, UniProt P48443); experiment: Nuclear retinoid receptor binding assay, competition with [3H]9-cis RA; conditions: 4-HBRCG up to 10^−4.5 M; data not shown
T1 sequence (P48443 1-463): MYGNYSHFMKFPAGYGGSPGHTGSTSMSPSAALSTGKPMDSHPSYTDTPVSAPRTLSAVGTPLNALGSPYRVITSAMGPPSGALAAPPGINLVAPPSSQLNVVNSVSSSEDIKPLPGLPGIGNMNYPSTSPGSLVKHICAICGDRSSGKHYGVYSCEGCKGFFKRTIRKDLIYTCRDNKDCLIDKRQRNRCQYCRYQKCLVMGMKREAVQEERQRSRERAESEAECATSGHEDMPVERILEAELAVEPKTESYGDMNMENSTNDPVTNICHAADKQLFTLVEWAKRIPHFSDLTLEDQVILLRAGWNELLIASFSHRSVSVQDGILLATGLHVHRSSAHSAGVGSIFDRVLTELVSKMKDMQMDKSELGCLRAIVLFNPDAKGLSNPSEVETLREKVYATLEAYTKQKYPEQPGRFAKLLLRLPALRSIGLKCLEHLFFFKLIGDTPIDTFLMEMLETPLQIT
Method: (§1) Nuclear Retinoid Receptor Binding Assay. Competition of 3 and 7 and 4-HBRCGlucose with [^3H]-all-trans-RA (4.2-4.6 nM) for binding to RARβ and RARγ and with [^3H]-9-cis RA (1.9 nM) for binding to RXRγ was determined using an in vitro ligand binding assay.^41, 42 [^3H]-all-trans-RA (40.5 Ci/mmole) or [^3H]-9-cis-RA (69.4 Ci/mmole) was added to receptor-containing extracts in the absence and presence of increasing concentrations of competing ligands at 4° C. for 3 hr. A hydroxylapatite (HAP) assay was used to separate ligand bound to receptor from that free in solution, and the radioactivity associated with the HAP pellet was measured by scintillation counting.

[3] = system: MCF-7 human breast cancer cells; experiment: Growth inhibition of MCF-7 human breast cancer cells; format: cell-based; conditions: 10^−5 M, 8-day period
Method: Inhibition of MCF-7 human breast cancer cell growth over an 8-day period was used as a means to assess the activity of 4-HBRCG and the analog 4-HBRCGlucose.
Growth inhibition of MCF-7 human breast cancer cells. MCF-7 cells were obtained from the American Type Culture Collection, Manassas, Va. They were maintained in DMEM medium supplemented with 4 g/L glucose, 3.7 g/L sodium bicarbonate and 10% heat-inactivated fetal calf serum. Cells were passaged into 12-well plates, cultured for 24 hours, after which time they were dosed with vehicle (0.2% ethanol) or retinoids; medium was changed and fresh vehicle or retinoids were added daily. Cells were harvested and the number of live cells was assessed using fluorescein diacetate, which yields a fluorescent product upon cleavage by metabolically active cells. Using fluorescent microscopy, at least 200 cells/well were counted with a hemacytometer.

[4] = molecular target: T2, RARβ (Homo sapiens, UniProt P10826); experiment: Nuclear retinoid receptor binding assay, competition with [3H]all-trans RA; conditions: FIG. 3A
T2 sequence (P10826 1-455): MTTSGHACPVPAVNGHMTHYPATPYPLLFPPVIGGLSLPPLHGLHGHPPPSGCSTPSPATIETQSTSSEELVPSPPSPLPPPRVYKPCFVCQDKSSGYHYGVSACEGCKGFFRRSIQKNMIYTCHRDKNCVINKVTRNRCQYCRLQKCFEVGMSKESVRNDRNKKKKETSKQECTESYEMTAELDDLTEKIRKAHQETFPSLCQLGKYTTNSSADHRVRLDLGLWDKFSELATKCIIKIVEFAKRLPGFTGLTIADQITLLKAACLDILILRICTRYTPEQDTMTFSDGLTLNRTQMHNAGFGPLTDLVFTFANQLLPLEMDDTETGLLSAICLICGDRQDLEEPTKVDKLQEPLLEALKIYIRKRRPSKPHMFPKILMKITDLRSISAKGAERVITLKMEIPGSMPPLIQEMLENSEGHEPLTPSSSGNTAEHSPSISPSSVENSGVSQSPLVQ
Method: as §1

[5] = molecular target: T3, RARγ (Homo sapiens, UniProt P13631); experiment: as above; conditions: FIG. 3B
T3 sequence (P13631 1-454): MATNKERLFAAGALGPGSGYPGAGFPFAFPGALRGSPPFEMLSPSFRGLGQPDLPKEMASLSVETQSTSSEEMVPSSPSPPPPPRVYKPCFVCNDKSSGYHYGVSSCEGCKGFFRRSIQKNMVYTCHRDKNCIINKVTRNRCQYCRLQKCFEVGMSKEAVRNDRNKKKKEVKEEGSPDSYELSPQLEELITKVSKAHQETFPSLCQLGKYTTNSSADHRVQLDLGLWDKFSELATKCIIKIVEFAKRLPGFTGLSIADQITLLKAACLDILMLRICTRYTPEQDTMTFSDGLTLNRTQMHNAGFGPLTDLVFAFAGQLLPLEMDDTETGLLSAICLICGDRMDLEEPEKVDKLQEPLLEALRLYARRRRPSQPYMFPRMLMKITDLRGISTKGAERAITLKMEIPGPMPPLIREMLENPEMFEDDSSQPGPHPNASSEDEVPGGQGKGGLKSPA
Method: as §1

[6] = molecular target: T4, RARα (Homo sapiens, UniProt P10276); experiment: Nuclear retinoid receptor binding assay; conditions: 4-HBRCG up to 10^−4.5 M; data not shown
T4 sequence (P10276 1-462): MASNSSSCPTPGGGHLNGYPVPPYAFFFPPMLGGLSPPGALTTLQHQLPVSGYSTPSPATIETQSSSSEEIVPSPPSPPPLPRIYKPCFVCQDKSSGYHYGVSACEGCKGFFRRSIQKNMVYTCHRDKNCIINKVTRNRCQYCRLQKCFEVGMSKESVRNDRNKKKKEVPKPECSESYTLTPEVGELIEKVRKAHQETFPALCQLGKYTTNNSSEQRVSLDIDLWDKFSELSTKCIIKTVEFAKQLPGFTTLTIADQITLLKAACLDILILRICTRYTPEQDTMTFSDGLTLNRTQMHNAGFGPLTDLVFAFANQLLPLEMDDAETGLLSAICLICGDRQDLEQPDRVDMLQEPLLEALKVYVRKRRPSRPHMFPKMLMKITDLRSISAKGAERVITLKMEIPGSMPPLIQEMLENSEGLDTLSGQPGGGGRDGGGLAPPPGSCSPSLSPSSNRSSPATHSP

[7] = Plasma triglyceride measurement; format: in vivo, rat; conditions: 2 mmol/kg diet, 22 days; FIG. 2A
Method: Plasma Triglyceride Measurement. Bloods were drawn from anesthetized animals in the presence of EDTA as an anticoagulant, and the resulting plasma was used for the measurement of plasma “true” triglyceride levels using a kit from Sigma-Aldrich (Saint Louis, Mo.). Briefly, the total plasma triglyceride and glycerol concentrations were determined, and the glycerol component was subtracted from the total plasma triglyceride measurement to obtain the “true” serum triglyceride concentration.

[8] = system: DMBA-induced rat mammary tumor; experiment: DMBA-induced rat mammary tumor model, retinoid-containing diets; format: in vivo
Method: Preliminary evaluation of the mammary tumor chemotherapeutic activity of 4-HBRCG (7) was conducted, and its toxicity profile was also assessed. As previously described,^7, 12 tumor-bearing female rats (treated ca. 50 days earlier with 7,12-dimethylbenz(a)anthracene [DMBA]) were fed the control or retinoid-containing diets (RA (2), 4-HPR (3) or 4-HBRCG (7)) at 2 mmole/kg diet for 22 days.
(§2) Animal Studies: Mammary tumors were induced by intragastric intubation of 50-day old female Sprague-Dawley rats (Harlan Industries, Indianapolis, Ind.) with a single dose of 15 mg DMBA in 1.0 ml of sesame oil per rat. The rats were then maintained on a powdered Teklad 22/5 rodent chow diet (W) 8640 (Harlan Industries, Indianapolis, Ind.), and allowed food and water ad libitum. Four months later, rats which had developed palpable tumors were randomly assigned to the experimental groups (4 rats/group). The retinoid-treated groups were fed diets supplemented with 2 mmol/kg diet of atRA, 4-HPR, or 4-HBRCG, respectively. The retinoids were added to the diet in a vehicle consisting of 25 ml of ethanol: tricaprylin (1:4 v/v) plus 2% (w/v) of α-tocopherol as previously described.^9 This vehicle was also added to the control diet. The additives were blended into the chow diets using a Hobart food mixer. The diets were fed in stainless steel feeders designed with food hoppers. The food was replaced weekly with freshly prepared diets. Food consumption was determined once weekly, and from that the average daily consumption/rat was estimated. These diets were continuously fed for 22 days. Animals were also weighted weekly and monitored for general health status and signs of possible toxicity due to treatment.
(§3) Baseline measurement of initial tumor sizes, numbers and rat body weights were determined immediately before commencement of treatments, and final measurements were recorded just prior to sacrifice of the animals. Animals were palpated for tumors twice weekly and tumor diameters were measured weekly by a micrometer caliper. Tumor volumes were calculated using the formula [V= 4/3 πr^3] where r is one-half the mean of the sum of the largest diameter and the axis at right angle to it. All tumors as well as lungs, liver, kidney and femur were excised at the end of the experiment for chemical and histopathological evaluation. Blood samples were also taken from each animal for determination of plasma retinol and triglyceride levels.

[9] = Terminal plasma drug levels (plasma retinoid assay, HPLC); format: in vivo, rat; conditions: female, Sprague-Dawley, rat, plasma, oral; day 22 of treatment; 2 mmol/kg diet; ± SEM; read-out: Plasma retinoid concentration (terminal plasma drug level)
Method: Plasma Retinoid Assay. To 500 μL of plasma was added 150 μL of ethanol containing 0.75 μg of internal standard (N-(4-chlorophenyl) retinamide). After mixing 30 sec., 500 μL of ethyl acetate was added followed by 1 min. of mixing and centrifugation for 5 minutes at 1000 rpm in an IEC CL centrifuge. The ethyl acetate layer was removed and syringe filtered through a 0.45 um filter. The ethyl acetate extraction was repeated two more times. The combined extracts were evaporated and the residue reconstituted in 100 μL of methanol. The methanol extract (20 μL) was analyzed by HPLC on a Beckman Instruments model 127 instrument equipped with a model 166 UV detector. Chromatography was done on a precolumn equipped 250×4.6 mm Bechman Ultrasphere ODS column with an 85% methanol/water mobile phase (both containing 10 mM ammonium acetate) flowing at 1 mL/min. Analysis for both internal standard and retinol was conducted at 350 nm and internal standard recoveries and retinol levels were determined by comparison with standard curves, with adjustment of the retinol level based on recovery. Recoveries of internal standard averaged ca. 78%. […] In the 4-HPR treated group, plasma levels of this retinoid were evaluated simultaneously in the same samples as above. In order to avoid interfering substances, plasma treatment retinoid levels for RA and 4-HBRCG were measured using the above system and a step gradient of 75% methanol for 15 min. followed by 85% methanol for 40 minutes.

[10] = Body weight change during retinoid feeding; format: in vivo, rat; conditions: 2 mmol/kg diet
Method: as §2, §3

[11] = system: CYP26B1 mRNA; experiment: Induction of CYP26B1 mRNA in lung (Q-PCR); format: in vivo, rat; conditions: at sacrifice, retinoid-fed rats, 2 mmol/kg diet; data not shown
[12] = Femur bone mineral content; format: in vivo, rat; conditions: end of feeding study; FIG. 2B
From the text: Bone Mineral Content. The femur was disarticulated from the leg, and the adhering soft tissue was removed by dissection. Femurs were scanned using the Lunar PIXImus 2 system (Model X2608, General Electric using the LUNAR software version 1.45), and control measurements were made using the small animal quality control phantom. Femurs were scanned 5 times each with re-positioning at each measure. The average value of the bone mineral content (BMC) in grams for each animal is reported as one independent measure.

[13] = system: CYP26A1 mRNA; experiment: Induction of CYP26A1 mRNA in liver (Q-PCR); format: in vivo, rat; conditions: at sacrifice, retinoid-fed rats, 2 mmol/kg diet; FIG. 4
[14] = number of individual tumors, 2 mmol/kg diet, 22 days

Compound: CC1=C(/C=C/C(C)=C/C=C/C(C)=C/C(=O)Nc2ccc(O[C@@H]3O[C@H](C(=O)O)[C@@H](O)[C@H](O)[C@H]3O)cc2)C(C)(C)CCC1 [compound 5, N-(4-hydroxyphenyl) retinamide-O-glucuronide]
Affinity for binding to nuclear RAR relative to RA [1]: low affinity relative to RA

Competition for [3H]9-cis RA binding to RXR [2]: binds poorly
Binding to RARβ [4]: binds poorly
Binding to RARγ [5]: binds poorly
Binding to RARα [6]: binds poorly
Compound: CC1=C(/C=C/C(C)=C/C=C/C(C)=C/C(=O)Cc2ccc(C[C@@H]3O[C@H](CO)[C@@H](O)[C@H](O)[C@H]3O)cc2)C(C)(C)CCC1 [4-HBRCGlucose, 2,6-Anhydro-7-deoxy-7-[4-(retinoylmethyl)-phenyl]-D-glycero-D-gulo-heptinol]
State of MCF-7 cells at end of assay [3]: the majority of the MCF-7 cells were dead at the end of the assay
Effect on number of live MCF-7 cells ([3]; FIG. 5): reduction in the number of live cells

Compound: CC1=C(/C=C/C(C)=C/C=C/C(C)=C/C(=O)Nc2ccc(CC3OC(C(=O)O)C(O)C(O)C3O)cc2)C(C)(C)CCC1 (stereo not shown) [compound 6, N-(4-hydroxyphenyl) retinamide-C-glucuronide]
Affinity for binding to nuclear RAR relative to RA [1]: low affinity relative to RA

concentration at 22 day [9]: 300 ± 100 ng/mL
Effect on femur bone mineral content vs control [12]: significant reduction in femur BMC
Compound: CC1=C(/C=C/C(C)=C/C=C/C(C)=C/C(=O)O)C(C)(C)CCC1 [Retinoic acid (2), all-trans retinoic acid]
Effect on serum triglyceride concentration [7]: dramatically increased serum triglyceride concentration
% Change in tumor volume from baseline ([8]; 2 mmol/kg diet for 22 days): −38 ^d %
Final tumor volume ([8]; 2 mmol/kg diet for 22 days, mean ± SEM): 0.05 ± 0.02 cm^3
Initial tumor volumes ([8]; baseline before treatment, mean ± SEM): 0.08 ± 0.03 cm^3
Complete regression (tumors that totally disappeared) [8, 14]: 1
No effect [8, 14]: 1
Partial regression (tumors with 25-75% decrease in volume) [8, 14]: 8
New tumors ([8]; number of tumors, 2 mmol/kg diet, 22 days): 0
Effect on normal body weight gain ([10]; feeding period): significant reduction in normal body weight gain
% Weight change ([10]; relative to baseline body weight over 22 days): +0.2 ^d %
Induction of CYP26B1 mRNA in lung [11]: 46 fold above control
Induction of CYP26A1 mRNA in liver [13]: 67 fold above control
